Experimental data published in patent US11498928B2, “Macrocyclic spiroethers as Mcl-1 inhibitors” (ASCENTAGE PHARMA (SUZHOU) CO., LTD., priority 2019, dated 2022).
Like-named read-outs stand apart in the source and are kept apart here.

Key:
OPM-2 cells = test: Cell viability assay (OPM-2 cells), CCK-8; format: cell-based; conditions: Homo sapiens, OPM-2, 24 h, 5% FBS
Procedure, shortened: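 Viability read by CCK-8 absorbance (450 nm, 4 h reagent incubation) after 24 h compound exposure of 20000 OPM-2 cells per well at 37 °C. IC50 fitted by nonlinear regression on vehicle-normalized signal.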

[1] = Pharmacokinetic studies in mice (IV and PO); format: in vivo; conditions: for F: PO 10 mg/kg vs IV 2 mg/kg; for AUC(0-inf) / AUC(0-t) / clearance / half-life / Cmax / MRT last / Vd / Tmax / Vd/F: mouse, plasma; for MRT last: read-out: MRT0-last; for Vd: read-out: Vss; for Vd/F: read-out: Vz/F
Procedure: Administration: Mice in the IV group was dosed at 2 mg/kg (20% PEG 400+10% Cremophor EL+70% PBS 7.4) via tail vein injection (N=9). Mice in the PO group was dosed at 10 mg/kg (20% PEG 400+10% Cremophor EL+70% PBS 7.4) via oral gavage (N=9). All the mice were fasted overnight before dosing and had free access to food 4 hr post dosing.
Sampling: The animal was restrained manually at the designated time points (0.083, 0.25, 0.5, 1, 2, 4, 6, 8 and 24 hr), approximately 110 μL of blood sample was collected via retro-orbital puncture or cardiac puncture for terminal bleeding under the anesthesia with Isoflurane inhalation into K2EDTA tubes. The blood samples were maintained in wet ice first and centrifuged to obtain plasma (2000 g, 4° C., 5 min) within 15 minutes post sampling. All the plasma samples were stored at approximately −70° C. until analysis.

[2] = target: T1, Mcl-1 protein (residues 171-323) (Homo sapiens, UniProt Q07820); test: Inhibition of Mcl-1 by fluorescence polarization (FP) competitive binding assay with FAM-Bid tracer; conditions: 2 nM FAM-Bid, 20 nM Mcl-1, 30 min
T1 construct: Tag-free Mcl-1 protein (residues 171-323) was used in the FP assay
T1 sequence (Q07820 171-323): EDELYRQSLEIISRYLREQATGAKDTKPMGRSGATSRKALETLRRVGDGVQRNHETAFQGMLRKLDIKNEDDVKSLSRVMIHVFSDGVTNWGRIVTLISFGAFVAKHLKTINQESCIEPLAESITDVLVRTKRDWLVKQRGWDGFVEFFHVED
Procedure, shortened: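 Ten-point compound titrations compete against 2 nM fluorescein-Bid for 20 nM Mcl-1 (171-323, untagged). Incubation 30 min RT in PBS buffer with BGG and Triton, 5% DMSO final. mP reduction fitted by sigmoidal nonlinear regression for IC50.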

NCI-H929 cells = test: Cell viability assay (NCI-H929 cells), CCK-8; format: cell-based; conditions: Homo sapiens, NCI-H929, 24 h, 5% FBS
Procedure, shortened: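 Viability of NCI-H929 cells was measured using the Cell Counting Kit-8. After 24 hrs of compound exposure, 10 μL of CCK-8 solution per well was incubated for 1-4 hours, and absorbance was read at 450 nm on a BioTek Synergy 1MF. Readings were normalized to vehicle (DMSO) cells, and IC50 values were derived by nonlinear regression in GraphPad Prism 6.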

[3] = amide bond, T3P, DMAP, DCM, 2.0 h
[4] = IV 2 mg/kg, read-out: C0/Cmax (C0)
[5] = PO 10 mg/kg, read-out: C0/Cmax (Cmax)

SMILES	IC50 (OPM-2 cells)	F [1]	AUC(0-inf) ([1]; IV 2 mg/kg)	AUC(0-t) ([1]; IV 2 mg/kg)	clearance ([1]; IV 2 mg/kg)	half-life ([1]; IV 2 mg/kg)	Cmax [1, 4]	MRT last ([1]; IV 2 mg/kg)	Vd ([1]; IV 2 mg/kg)	AUC(0-inf) ([1]; PO 10 mg/kg)	AUC(0-t) ([1]; PO 10 mg/kg)	Tmax ([1]; PO 10 mg/kg)	half-life ([1]; PO 10 mg/kg)	Cmax [1, 5]	MRT last ([1]; PO 10 mg/kg)	Vd/F ([1]; PO 10 mg/kg)	IC50 [2]	IC50 (NCI-H929 cells)	also measured
CO[C@H]1C2=CC(C2)[C@H](C)[C@@H](C)S(=O)(=O)NC(=O)c2ccc3c(c2)N(C[C@@H]2CC[C@H]21)C[C@@]1(CCCc2cc(Cl)c(F)cc21)CO3 (single isomer, unassigned) [Cpd. No. 21 (isomer 1)]	1.12 µM	94.1%	8780 ng·h/mL	8740 ng·h/mL	3.8 mL/min/kg	3.7 h	5160 ng/mL	2.7 h	0.6 L/kg	41300 ng·h/mL	41200 ng·h/mL	2 h	2.8 h	5260 ng/mL	4.9 h	9.9 L/kg	0.0066 µM	1 µM	
CC(=O)OC1C2=C[C@@H](C2)[C@H](C)[C@@H](C)S(=O)(=O)NC(=O)c2ccc3c(n2)N(C[C@@H]2CC[C@@H]12)C[C@@]1(CCCc2c1ccc(Cl)c2F)CO3 (stereo partly drawn)																			ring closure, yield of all isomers ([3]; from CC(=O)OC(C1=C[C@H]([C@H](C)[C@@H](C)S(N)(=O)=O)C1)[C@@H]1CC[C@H]1CN1C[C@@]2(CCCc3c2ccc(Cl)c3F)COc2ccc(C(=O)O)nc21, DIPEA, 24.6 mM): 100%
CO[C@@]1(C=O)C2=C[C@@H](C2)[C@H](C)[C@@H](C)S(=O)(=O)NC(=O)c2ccc3c(c2)N(C[C@@H]2CC[C@H]21)C[C@@]1(CCCc2c1ccc(Cl)c2F)CO3																			ring closure, yield of all isomers ([3]; from CO[C@@](C=O)(C1=C[C@H]([C@H](C)[C@@H](C)S(N)(=O)=O)C1)[C@@H]1CC[C@H]1CN1C[C@@]2(CCCc3c2ccc(Cl)c3F)COc2ccc(C(=O)O)cc21, DIPEA, 6.4 mM, 0.0 °C): 89%
CO[C@H]1C2=CC(C)(C2)[C@H](C)CS(=O)(=O)NC(=O)c2ccc3c(c2)N(C[C@@H]2CC[C@H]21)C[C@@]1(CCCc2cc(Cl)ccc21)CO3 (mixture of isomers) [13 (mixture)]	0.348 µM	57.2%	5200 ng·h/mL	4780 ng·h/mL	6.4 mL/min/kg	6.5 h	861 ng/mL	6.2 h	3.2 L/kg	14900 ng·h/mL	14400 ng·h/mL	4 h	4.5 h	1270 ng/mL	6.6 h	4.4 L/kg	0.021 µM	0.089 µM	
CO[C@H]1C2=CC(C2)[C@H](C)CS(=O)(=O)NC(=O)c2ccc3c(c2)N(C[C@@H]2CC[C@H]21)C[C@@]1(CCCc2c1ccc(Cl)c2F)CS3 (stereo partly drawn)																			ring closure, yield of all isomers ([3]; from CO[C@@H](C1=CC([C@H](C)CS(N)(=O)=O)C1)[C@@H]1CC[C@H]1CN1C[C@@]2(CCCc3c2ccc(Cl)c3F)CSc2ccc(C(=O)O)cc21, Et3N, 10.6 mM, 25.0 °C): 26.4%
